*1 amine or outer side, *2 acyl side, *3 side chain or, on linkers, in order; H or OH if unused. Where a SMILES comes first, the peptide text is derived from it. Side-chain parts run from the residue outwards. The star is where a group is joined. C18 diacid = O=C(O)CCCCCCCCCCCCCCCCC(=O)*; γGlu = O=C(O)[C@H](CCC(=O)[*:2])N[*:1]; Isovaleryl = CC(C)CC(=O)*; Ahx = NCCCCCC(=O)O
Legend:
[1] = biological target: T1, Human Neuropeptide Y2 Receptor (Homo sapiens, UniProt P49146); assay: Radioligand binding competition assay (RLB); details: Table 3, 125I-PYY(1-36) competition; read-out: Ki
T1 construct: purchased CHEMICON HTS066M
T1 sequence (P49146 1-381): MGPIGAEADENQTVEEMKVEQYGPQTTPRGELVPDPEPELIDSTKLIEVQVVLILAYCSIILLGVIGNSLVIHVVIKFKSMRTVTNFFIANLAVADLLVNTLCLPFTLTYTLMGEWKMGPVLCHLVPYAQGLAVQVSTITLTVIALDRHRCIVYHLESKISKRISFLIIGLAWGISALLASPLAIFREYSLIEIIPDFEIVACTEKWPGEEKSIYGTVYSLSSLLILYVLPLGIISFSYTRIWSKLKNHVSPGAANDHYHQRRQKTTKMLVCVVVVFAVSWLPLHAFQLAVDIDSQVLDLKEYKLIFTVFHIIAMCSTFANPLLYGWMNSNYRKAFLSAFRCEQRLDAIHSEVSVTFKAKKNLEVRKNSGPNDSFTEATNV
Method in brief: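 Filtration binding assay on human Y2 receptor membrane preparation, 0.5 μg protein per well, in 50 mM HEPES pH 7.4 containing 5 mM MgCl2, 1 mM CaCl2 and 0.2% ovalbumin. Plates shake 2 h at room temperature before harvest and scintillation counting.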

Solubility determination = details: for Sol6: pH 6; for Sol7: pH 7
Method in brief: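 First, TFA-salt peptide was added to 0.1 M sodium diphosphate (pH 6.4 or 7.0) to 10 mg/ml and shaken 2 h at room temperature. Next, insoluble material was filtered off. Finally, filtrate and control, each 1 mg/ml in 50% acetonitrile, were compared by reversed-phase chromatography.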

SMILES	Ki [1]	Sol6 (Solubility determination)	Sol7 (Solubility determination)
CC(C)CC(=O)N[C@@H](C)C(=O)N1CCC[C@H]1C(=O)N[C@@H](CCC(=O)O)C(=O)N[C@@H](CCCCNC(=O)CCCCCNC(=O)CC[C@H](NC(=O)CCCCCCCCCCCCCCCCC(=O)O)C(=O)O)C(=O)N1CCC[C@H]1C(=O)N[C@@H](CCC(=O)O)C(=O)N[C@@H](CCC(=O)O)C(=O)N[C@@H](CC(=O)O)C(=O)N[C@@H](CCC(N)=O)C(=O)N[C@H](C(=O)N1CCC[C@H]1C(=O)N[C@@H](CCC(=O)O)C(=O)N[C@@H](CCC(=O)O)C(=O)N[C@@H](CC(C)C)C(=O)N[C@@H](CCC(N)=O)C(=O)N[C@@H](CCCNC(=N)N)C(=O)N[C@@H](Cc1ccc(O)cc1)C(=O)N[C@@H](Cc1ccc(O)cc1)C(=O)N[C@H](C(=O)N[C@@H](CO)C(=O)N[C@@H](CC(C)C)C(=O)N[C@@H](CCCNC(=N)N)C(=O)N[C@@H](Cc1c[nH]cn1)C(=O)N[C@@H](Cc1ccc(O)cc1)C(=O)N[C@@H](Cc1ccc(O)cc1)C(=O)N[C@@H](CC(N)=O)C(=O)N[C@@H](Cc1c[nH]c2ccccc12)C(=O)N[C@@H](CC(C)C)C(=O)N[C@H](C(=O)N[C@@H](CCCNC(=N)N)C(=O)N[C@@H](CCC(N)=O)C(=O)N[C@@H](CCCNC(=N)N)C(=O)N[C@@H](Cc1ccc(O)cc1)C(N)=O)[C@@H](C)O)C(C)C)[C@@H](C)O [Compound 144, N{alpha-4}-(3-methylbutanoyl)-N{epsilon-7}-(6-[(4S)-4-carboxy-4-(17-carboxyheptadecanamido)butanamido]hexanoyl)-[4A,7K,9E,12Q,13T,18Q,22V,28Y,30W,31L]-hPYY(4-36)]	9.76 nM	9.7 mg/mL	9.6 mg/mL
CC[C@H](C)[C@H](NC(=O)[C@H](CCC(=O)O)NC(=O)[C@H](CCC(=O)O)NC(=O)[C@@H]1CCCN1C(=O)[C@H](CCC(=O)O)NC(=O)[C@H](C)NC(=O)[C@H](C)NC(=O)[C@H](C)NC(=O)[C@H](CCC(=O)O)NC(=O)[C@@H]1CCCN1C(=O)[C@H](CCCCNC(=O)CCCCCNC(=O)CC[C@H](NC(=O)CCCCCCCCCCCCCCCCC(=O)O)C(=O)O)NC(=O)[C@H](CCC(=O)O)NC(=O)[C@@H]1CCCN1C(=O)[C@H](C)NC(=O)CC(C)C)C(=O)N[C@@H](CCC(N)=O)C(=O)N[C@@H](CCCNC(=N)N)C(=O)N[C@@H](Cc1ccc(O)cc1)C(=O)N[C@@H](Cc1ccc(O)cc1)C(=O)N[C@H](C(=O)N[C@@H](C)C(=O)N[C@@H](CC(C)C)C(=O)N[C@@H](CCCNC(=N)N)C(=O)N[C@@H](Cc1c[nH]cn1)C(=O)N[C@@H](Cc1ccc(O)cc1)C(=O)N[C@@H](Cc1ccc(O)cc1)C(=O)N[C@@H](CC(N)=O)C(=O)N[C@@H](Cc1c[nH]c2ccccc12)C(=O)N[C@@H](CC(C)C)C(=O)N[C@H](C(=O)N[C@@H](CCCNC(=N)N)C(=O)N[C@@H](CCC(N)=O)C(=O)N[C@@H](CCCNC(=N)N)C(=O)N[C@@H](Cc1ccc(O)cc1)C(N)=O)[C@@H](C)O)C(C)C [Compound 135, N{alpha-4}-(3-methylbutanoyl)-N{epsilon-7}-(6-[(4S)-4-carboxy-4-(17-carboxyheptadecanamido)butanamido]hexanoyl)-[4A,7K,9E,10A,11A,13E,17I,18Q,22V,23A,28Y,30W,31L]-hPYY(4-36)] (Isovaleryl-APEK([Ahx-γGlu-C18 diacid])PEAAAEPEEIQRYYVALRHYYNWLTRQRY-NH2)	3.83 nM	0.2 mg/mL	>10.0 mg/mL
CC(C)CC(=O)N[C@@H](C)C(=O)N1CCC[C@H]1C(=O)N[C@@H](CCC(=O)O)C(=O)N[C@@H](CCCCNC(=O)CCCCCNC(=O)CC[C@H](NC(=O)CCCCCCCCCCCCCCCCC(=O)O)C(=O)O)C(=O)N1CCC[C@H]1C(=O)N[C@@H](CCC(=O)O)C(=O)N[C@@H](CCC(=O)O)C(=O)N[C@@H](CC(=O)O)C(=O)N[C@@H](C)C(=O)N[C@H](C(=O)N1CCC[C@H]1C(=O)N[C@@H](CCC(=O)O)C(=O)N[C@@H](CCC(=O)O)C(=O)N[C@@H](CC(C)C)C(=O)N[C@@H](CCC(N)=O)C(=O)N[C@@H](CCCNC(=N)N)C(=O)N[C@@H](Cc1ccc(O)cc1)C(=O)N[C@@H](Cc1ccc(O)cc1)C(=O)N[C@H](C(=O)N[C@@H](CO)C(=O)N[C@@H](CC(C)C)C(=O)N[C@@H](CCCNC(=N)N)C(=O)N[C@@H](Cc1c[nH]cn1)C(=O)N[C@@H](Cc1ccc(O)cc1)C(=O)N[C@@H](Cc1ccc(O)cc1)C(=O)N[C@@H](CC(N)=O)C(=O)N[C@@H](Cc1c[nH]c2ccccc12)C(=O)N[C@@H](CC(C)C)C(=O)N[C@H](C(=O)N[C@@H](CCCNC(=N)N)C(=O)N[C@@H](CCC(N)=O)C(=O)N[C@@H](CCCNC(=N)N)C(=O)N[C@@H](Cc1ccc(O)cc1)C(N)=O)[C@@H](C)O)C(C)C)[C@@H](C)O [Compound 173, N{alpha-4}-(3-methylbutanoyl)-N{epsilon-7}-(6-[(4S)-4-carboxy-4-(17-carboxyheptadecanamido)butanamido]hexanoyl)-[4A,7K,9E,13T,18Q,22V,28Y,30W,31L]-hPYY(4-36)]	4.07 nM	9.2 mg/mL	9.6 mg/mL

These reach a lower Ki [1]. Values come first.

Ki [1]	Sol6 (Solubility determination)	Sol7 (Solubility determination)	SMILES
1.55 nM	9.3 mg/mL	9.3 mg/mL	CC[C@H](C)[C@H](NC(=O)[C@H](Cc1ccc(O)cc1)NC(=O)[C@H](Cc1ccc(O)cc1)NC(=O)[C@H](CCCNC(=N)N)NC(=O)[C@H](CCC(N)=O)NC(=O)[C@H](CC(C)C)NC(=O)[C@H](CCC(=O)O)NC(=O)[C@H](CCC(=O)O)NC(=O)[C@@H]1CCCN1C(=O)[C@@H](NC(=O)[C@H](C)NC(=O)[C@H](CC(=O)O)NC(=O)[C@H](C)NC(=O)[C@H](CCC(=O)O)NC(=O)[C@@H]1CCCN1C(=O)[C@H](CCCCNC(=O)CCCCCNC(=O)CC[C@H](NC(=O)CCCCCCCCCCCCCCCCC(=O)O)C(=O)O)NC(=O)[C@H](CCC(=O)O)NC(=O)[C@@H]1CCCN1C(=O)[C@H](C)NC(=O)CC(C)C)[C@@H](C)O)C(=O)N[C@@H](CO)C(=O)N[C@@H](CC(C)C)C(=O)N[C@@H](CCCNC(=N)N)C(=O)N[C@@H](Cc1c[nH]cn1)C(=O)N[C@@H](Cc1ccc(O)cc1)C(=O)N[C@@H](Cc1ccc(O)cc1)C(=O)N[C@@H](CC(N)=O)C(=O)N[C@@H](Cc1c[nH]c2ccccc12)C(=O)N[C@@H](CC(C)C)C(=O)N[C@H](C(=O)N[C@@H](CCCNC(=N)N)C(=O)N[C@@H](CCC(N)=O)C(=O)N[C@@H](CCCNC(=N)N)C(=O)N[C@@H](Cc1ccc(O)cc1)C(N)=O)[C@@H](C)O [Compound 25, N{alpha-4}-(3-methylbutanoyl)-N{epsilon-7}-(6-[(4S)-4-carboxy-4-(17-carboxyheptadecanamido)butanamido]hexanoyl)[4A,7K,9E,10A,13T,18Q,22I,28Y,30W,31L]-hPYY(4-36)] (Isovaleryl-APEK([Ahx-γGlu-C18 diacid])PEADATPEELQRYYISLRHYYNWLTRQRY-NH2)
3.65 nM	9.1 mg/mL	8.7 mg/mL	CC(C)CC(=O)N[C@@H](C)C(=O)N1CCC[C@H]1C(=O)N[C@@H](CCC(=O)O)C(=O)N[C@@H](CCCCNC(=O)CCCCCNC(=O)CC[C@H](NC(=O)CCCCCCCCCCCCCCCCC(=O)O)C(=O)O)C(=O)N1CCC[C@H]1C(=O)N[C@@H](CCC(=O)O)C(=O)N[C@@H](CCC(=O)O)C(=O)N[C@@H](CC(=O)O)C(=O)N[C@@H](C)C(=O)N[C@@H](C)C(=O)N1CCC[C@H]1C(=O)N[C@@H](CCC(=O)O)C(=O)N[C@@H](CCC(=O)O)C(=O)N[C@@H](CC(C)C)C(=O)N[C@@H](CCC(N)=O)C(=O)N[C@@H](CCCCN)C(=O)N[C@@H](Cc1ccc(O)cc1)C(=O)N[C@@H](Cc1ccc(O)cc1)C(=O)N[C@H](C(=O)N[C@@H](CO)C(=O)N[C@@H](CC(C)C)C(=O)N[C@@H](CCCNC(=N)N)C(=O)N[C@@H](Cc1c[nH]cn1)C(=O)N[C@@H](Cc1ccc(O)cc1)C(=O)N[C@@H](Cc1ccc(O)cc1)C(=O)N[C@@H](CC(N)=O)C(=O)N[C@@H](Cc1c[nH]c2ccccc12)C(=O)N[C@@H](CC(C)C)C(=O)N[C@H](C(=O)N[C@@H](CCCNC(=N)N)C(=O)N[C@@H](CCC(N)=O)C(=O)N[C@@H](CCCNC(=N)N)C(=O)N[C@@H](Cc1ccc(O)cc1)C(N)=O)[C@@H](C)O)C(C)C [Compound 123, N{alpha-4}-(3-methylbutanoyl)-N{epsilon-7}-(6-[(4S)-4-carboxy-4-(17-carboxyheptadecanamido)butanamido]hexanoyl)-[4A,7K,9E,13A,18Q,19K,22V,28Y,30W,31L]-hPYY(4-36)]

From patent US12391737B2, “Soluble NPY2 receptor agonists” (Boehringer Ingelheim International GmbH, priority 2020, dated 2025)
